The target in series [1] is T1, Thymidylate synthase (Lactobacillus casei) (UniProt P00469).
T1 sequence (whole entry): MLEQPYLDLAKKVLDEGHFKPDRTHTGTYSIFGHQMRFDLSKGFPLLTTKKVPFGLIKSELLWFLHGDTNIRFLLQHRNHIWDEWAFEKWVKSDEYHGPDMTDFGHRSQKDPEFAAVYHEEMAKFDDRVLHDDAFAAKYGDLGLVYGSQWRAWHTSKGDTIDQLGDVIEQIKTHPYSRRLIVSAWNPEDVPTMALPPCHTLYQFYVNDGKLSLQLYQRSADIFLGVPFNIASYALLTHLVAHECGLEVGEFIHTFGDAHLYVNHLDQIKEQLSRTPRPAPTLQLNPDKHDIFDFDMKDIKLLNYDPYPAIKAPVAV
As to the kind of experiment: Compound was tested for its inhibition against Thymidylate synthase up to concentration of 1 mM; IA means inactive. The following applies: Lacticaseibacillus casei.

Series [2] deals with L5178Y. The series can be described thus: Comparative inhibition of L5178Y cell growth in vitro (concentration required for 50% inhibition). The series is classed as functional, cell-based. Particulars: Mus musculus.
For series [3], the system named is L5178Y. As to the kind of experiment: In vitro percent inhibition at 10 e-8 M against L5178Y cell growth after 72 hr (replicate flasks inoculated with 10 e5 cells were treated with the nucleotide). It is filed as functional. The following applies: Mus musculus.
Series [4] can be described thus: Half-life for hydrolysis to 5-fluoro-2'-deoxyuridine-5'-phosphate at 65 degree Centigrade. It is filed as ADME.
In series [5] the test system is L5178Y. As to the kind of experiment: (§1) Half-life for hydrolysis to 5-fluoro-2'-deoxyuridine-5'-phosphate at 100 degree Centigrade. Particulars: Mus musculus. The series is classed as functional.
Series [6] is described as follows: Half-life for hydrolysis to 5-fluoro-2'-deoxyuridine-5'-phosphate at […] Centigrade. The series is classed as ADME.
The nature of series [7]: as §1. It is filed as ADME.

Usually inhibition stands for the relative decrease from the control value, in per cent. For orientation: IC50 means the point on the concentration scale where inhibition reaches its midpoint. High values mean lower potency, low ones higher potency. In general, half-life refers to the time needed for the level to fall by half in the phase considered. A higher half-life goes with slow loss.

Each structure is given as a SMILES string. Activity calls are given as the source filed them.

Consider `O=c1[nH]c(=O)n([C@H]2C[C@H](O)[C@@H](CO)O2)cc1F` [FLOXURIDINE], for which the inhibition result in series [1] was “inactive”. The compound further displayed an IC50 in series [2] of 0.76 nM.

For the compound `O=c1[nH]c(=O)n([C@H]2C[C@H](O)[C@@H](COP(=O)(N3CCOCC3)N3CCOCC3)O2)cc1F`, at 0.01 µM the inhibition in series [3] was 11%. Also, the inhibition entry in series [1] was “inactive”. The compound also gave a half-life in series [4] of 240 h. For the same compound, the T1/2 in series [5] is 100 h.

`O=c1[nH]c(=O)n([C@H]2C[C@H](O)[C@@H](COP(=O)(O)O)O2)cc1F` [5-FLUORODEOXYURIDYLATE] yielded an inhibition at 0.01 µM in series [3] of 67%. The inhibition result in series [1] was “inactive”. In series [2], this compound returned an IC50 of 1.4 nM.

Regarding `NP(N)(=O)OC[C@H]1O[C@@H](n2cc(F)c(=O)[nH]c2=O)C[C@@H]1O`, the inhibition at 0.01 µM in series [3] came to 45%. The inhibition result in series [1] is “inactive”. Moreover, the IC50 in series [2] was 2 nM. Further, the half-life is 0.25 h in series [6] and 3.9 h in series [7].

The values are drawn from ChEMBL document CHEMBL1121560, “Synthesis and biological activity of 5-fluoro-2'-deoxyuridine 5'-phosphorodiamidates” (J Med Chem, 1980).
